Consider 23 compounds from patent US11254663B2 (BRISTOL-MYERS SQUIBB COMPANY, priority 2019, dated 2022).

As a reminder, the EC50 is the concentration giving half of the maximal effect. Low readings indicate a more potent agent, high ones a less potent agent.

The target in the first assay is FXR (Homo sapiens (Human), UniProt Q96RI1). In words: transient human FXR/Gal4-luciferase reporter assay. The format is cell-based.
Sequence of FXR (Q96RI1 262-486): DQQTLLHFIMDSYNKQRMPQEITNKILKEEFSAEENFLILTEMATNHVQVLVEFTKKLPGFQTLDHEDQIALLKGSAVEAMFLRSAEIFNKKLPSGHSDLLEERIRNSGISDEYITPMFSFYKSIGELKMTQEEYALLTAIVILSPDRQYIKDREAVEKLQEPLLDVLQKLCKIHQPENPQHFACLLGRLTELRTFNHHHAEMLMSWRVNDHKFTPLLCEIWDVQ
Conditions: not given
An outline of the steps:
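Compound exposure ran overnight at 37 °C and activity was measured as luminescence with Steady-Glo reagent. The cells were a HEK293 line stably expressing firefly luciferase under five Gal4 response elements. They were transiently transfected, one night beforehand, with a plasmid encoding Gal4 DNA-binding domain fused to the human FXR ligand-binding domain.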
Background: A reporter such as luciferase makes a cellular process visible.
As to `CS(=O)(=O)Nc1ccc(-c2cccc(N(CC34CCC(c5nc(C(F)F)no5)(CC3)CC4)C(=O)C34CC(F)(C3)C4)c2)cc1` [Example 469, N-((4-(3-(difluoromethyl)-1,2,4-oxadiazol-5-yl)bicyclo[2.2.2]octan-1-yl)methyl)-3-fluoro-N-(4′-(methylsulfonamido)-[1,1′-biphenyl]-3-yl)bicyclo[1.1.1]pentane-1-carboxamide], the concentration for a half-maximal effect (EC50) was 654 nM. This lies in the sub-micromolar range. For `CCOc1ncc(-c2cccc(N(CC34CCC(c5nc(C(C)(C)C)no5)(CC3)CC4)C(=O)C3(C)COC3)c2)cn1` [Example 503, N-((4-(3-(tert-butyl)-1,2,4-oxadiazol-5-yl)bicyclo[2.2.2]octan-1-yl)methyl)-N-(3-(2-ethoxypyrimidin-5-yl)phenyl)-3-methyloxetane-3-carboxamide], the response was half-maximal at 1580 nM (EC50). On the same count and under the same terms, then `CCOc1ncc(-c2cccc(N(CC34CCC(c5noc(C(C)(C)C)n5)(CC3)CC4)C(=O)C3CC(O)(C(F)(F)F)C3)c2)cn1` [Example 509, (1S,3S)—N-((4-(5-(tert-butyl)-1,2,4-oxadiazol-3-yl)bicyclo[2.2.2]octan-1-yl)methyl)-N-(3-(2-ethoxypyrimidin-5-yl)phenyl)-3-hydroxy-3-(trifluoromethyl)cyclobutane-1-carboxamide], with 230 nM; and `Cc1nc2ccc(-c3ccnc(N(CC45CCC(c6cc(C7CC7)nn6C)(CC4)CC5)C(=O)C45CC(F)(C4)C5)c3)cc2s1` [Example 546, N-((4-(3-cyclopropyl-1-methyl-1H-pyrazol-5-yl)bicyclo[2.2.2]octan-1-yl)methyl)-3-fluoro-N-(4-(2-methylbenzo[d]thiazol-6-yl)pyridin-2-yl)bicyclo[1.1.1]pentane-1-carboxamide], with 48 nM.

The assay is the same for the next values; noted with them: Gal4-hFXR fusion construct, HEK293 reporter cells; response relative to 8 μM GW-4064.
`N#Cc1cccc(-c2cccc(N(CC34CCC(c5nc(C6CC6)no5)(CC3)CC4)C(=O)C34CC(F)(C3)C4)c2)n1` [Example 292, N-(3-(6-cyanopyridin-2-yl)phenyl)-N-((4-(3-cyclopropyl-1,2,4-oxadiazol-5-yl)bicyclo[2.2.2]octan-1-yl)methyl)-3-fluorobicyclo[1.1.1]pentane-1-carboxamide] registered an EC50 of 148 nM. This lies in the sub-micromolar range. The same measure, in the same setting: then `CC(C)c1nc(C23CCC(CN(C(=O)C45CC(F)(C4)C5)c4cccc(-c5ccc(NS(C)(=O)=O)cc5)c4)(CC2)CC3)no1` [Example 430, 3-fluoro-N-((4-(5-isopropyl-1,2,4-oxadiazol-3-yl)bicyclo[2.2.2]octan-1-yl)methyl)-N-(4′-(methylsulfonamido)-[1,1′-biphenyl]-3-yl)bicyclo[1.1.1]pentane-1-carboxamide], with 40 nM. Regarding `Cc1nc2ccc(-c3cccc(N(CC45CCC(c6nc(C7CC7)no6)(CC4)CC5)C(=O)C45CC(F)(C4)C5)c3)cc2o1` [Example 275, N-((4-(3-cyclopropyl-1,2,4-oxadiazol-5-yl)bicyclo[2.2.2]octan-1-yl)methyl)-3-fluoro-N-(3-(2-methylbenzo[d]oxazol-6-yl)phenyl)bicyclo[1.1.1]pentane-1-carboxamide], the response was half-maximal at 58.7 nM (EC50). Same read-out and setting: then `O=C(N(CC12CCC(c3nc(C4CC4)no3)(CC1)CC2)c1cccc(-c2cnc(C(F)(F)F)nc2)c1)C12CC(F)(C1)C2` [Example 262, N-((4-(3-cyclopropyl-1,2,4-oxadiazol-5-yl)bicyclo[2.2.2]octan-1-yl)methyl)-3-fluoro-N-(3-(2-(trifluoromethyl)pyrimidin-5-yl)phenyl)bicyclo[1.1.1]pentane-1-carboxamide], with 140 nM; and `CC1(c2nc(C34CCC(CN(C(=O)C56CC(F)(C5)C6)c5cccc(-c6ccc(NS(C)(=O)=O)cc6)c5)(CC3)CC4)no2)CC1` [Example 398, 3-fluoro-N-((4-(5-(1-methylcyclopropyl)-1,2,4-oxadiazol-3-yl)bicyclo[2.2.2]octan-1-yl)methyl)-N-(4′-(methylsulfonamido)-[1,1′-biphenyl]-3-yl)bicyclo[1.1.1]pentane-1-carboxamide], with 93 nM. Same read-out and setting: then `COc1ccc(-c2cccc(N(CC34CCC(c5ccc(C6(C#N)CC6)cc5)(CC3)OC4)C(=O)C34CC(F)(C3)C4)c2)cn1` [Example 350, N-((1-(4-(1-cyanocyclopropyl)phenyl)-2-oxabicyclo[2.2.2]octan-4-yl)methyl)-3-fluoro-N-(3-(6-methoxypyridin-3-yl)phenyl)bicyclo[1.1.1]pentane-1-carboxamide], with 296 nM; and `COCc1ccc(-c2cccc(N(CC34CCC(c5nc(C6CC6)no5)(CC3)CC4)C(=O)C34CC(F)(C3)C4)c2)cn1` [Example 274, N-((4-(3-cyclopropyl-1,2,4-oxadiazol-5-yl)bicyclo[2.2.2]octan-1-yl)methyl)-3-fluoro-N-(3-(6-(methoxymethyl)pyridin-3-yl)phenyl)bicyclo[1.1.1]pentane-1-carboxamide], with 106 nM. With `CCOc1ccc(-c2cccc(N(CC34CCC(c5noc(C6(C)CC6)n5)(CC3)CC4)C(=O)C34CC(F)(C3)C4)c2)cc1` [Example 399, N-(4′-ethoxy-[1,1′-biphenyl]-3-yl)-3-fluoro-N-((4-(5-(1-methylcyclopropyl)-1,2,4-oxadiazol-3-yl)bicyclo[2.2.2]octan-1-yl)methyl)bicyclo[1.1.1]pentane-1-carboxamide], the concentration giving a half-maximal response (EC50) was 58 nM. Still for that read-out and setting: then `CS(=O)(=O)Nc1ccc(-c2cccc(N(CC34CCC(c5cnc(C(F)(F)F)nc5)(CC3)OC4)C(=O)C34CC(F)(C3)C4)c2)cc1` [Example 419, 3-fluoro-N-(4′-(methylsulfonamido)-[1,1′-biphenyl]-3-yl)-N-((1-(2-(trifluoromethyl)pyrimidin-5-yl)-2-oxabicyclo[2.2.2]octan-4-yl)methyl)bicyclo[1.1.1]pentane-1-carboxamide], with 523 nM; and `N#Cc1ccc(-c2cccc(N(CC34CCC(c5nc(C6CC6)no5)(CC3)CC4)C(=O)C34CC(F)(C3)C4)c2)nc1` [Example 297, N-(3-(5-cyanopyridin-2-yl)phenyl)-N-((4-(3-cyclopropyl-1,2,4-oxadiazol-5-yl)bicyclo[2.2.2]octan-1-yl)methyl)-3-fluorobicyclo[1.1.1]pentane-1-carboxamide], with 1250 nM. Regarding `COc1cc(-c2cccc(N(CC34CCC(c5cc(C(F)(F)F)ccn5)(CC3)CC4)C(=O)C34CC(F)(C3)C4)c2)ccn1` [Example 241, 3-fluoro-N-(3-(2-methoxypyridin-4-yl)phenyl)-N-((4-(4-(trifluoromethyl)pyridin-2-yl)bicyclo[2.2.2]octan-1-yl)methyl)bicyclo[1.1.1]pentane-1-carboxamide], the 50% effective concentration (EC50) worked out at 1060 nM. The same measure, in the same setting: then `COc1nccc(-c2cccc(N(CC34CCC(c5nc(C6CC6)no5)(CC3)CC4)C(=O)C3CCC(F)(F)C3)c2)n1` (centres unmarked) [Example 245, N-((4-(3-cyclopropyl-1,2,4-oxadiazol-5-yl)bicyclo[2.2.2]octan-1-yl)methyl)-3,3-difluoro-N-(3-(2-methoxypyrimidin-4-yl)phenyl)cyclopentane-1-carboxamide], with 538 nM; and `CCOc1ccc(-c2cccc(N(CC34CCC(c5cnc(C(F)(F)F)nc5)(CC3)OC4)C(=O)C34CC(F)(C3)C4)c2)cc1` [Example 422, N-(4′-ethoxy-[1,1′-biphenyl]-3-yl)-3-fluoro-N-((1-(2-(trifluoromethyl)pyrimidin-5-yl)-2-oxabicyclo[2.2.2]octan-4-yl)methyl)bicyclo[1.1.1]pentane-1-carboxamide], with 1520 nM. As to `CC(C)c1cc(C23CCC(CN(C(=O)OC(C)(C)C(F)(F)F)c4cc(-c5ccc(C(C)(C)O)cc5)ccn4)(CC2)CC3)n(C)n1` [Example 661, 1,1,1-trifluoro-2-methylpropan-2-yl (4-(4-(2-hydroxypropan-2-yl)phenyl)pyridin-2-yl)((4-(3-isopropyl-1-methyl-1H-pyrazol-5-yl)bicyclo[2.2.2]octan-1-yl)methyl)carbamate], a half-maximal response (EC50) required 53 nM.

On to `COc1cc(-c2cccc(N(CC34CCC(c5cc(C(F)(F)F)ccn5)(CC3)CC4)C(=O)C3CCC3)c2)ccn1` [Example 240, N-(3-(2-methoxypyridin-4-yl)phenyl)-N-((4-(4-(trifluoromethyl)pyridin-2-yl)bicyclo[2.2.2]octan-1-yl)methyl)cyclobutanecarboxamide], for which the EC50 stood at 2130 nM. On the same count and under the same terms, then `CCOc1ncc(-c2cncc(N(CC34CCC(c5noc(C(C)(C)C)n5)(CC3)CC4)C(=O)C34CC(F)(C3)C4)c2)cn1` [Example 478, N-((4-(5-(tert-butyl)-1,2,4-oxadiazol-3-yl)bicyclo[2.2.2]octan-1-yl)methyl)-N-(5-(2-ethoxypyrimidin-5-yl)pyridin-3-yl)-3-fluorobicyclo[1.1.1]pentane-1-carboxamide], with 1100 nM; and `CC(C)Oc1ccc(-c2cc(N(CC34CCC(c5nc(C6CC6)no5)(CC3)CC4)C(=O)OC(C)(C)C(F)(F)F)ncc2F)cc1` [Example 617, 1,1,1-trifluoro-2-methylpropan-2-yl ((4-(3-cyclopropyl-1,2,4-oxadiazol-5-yl)bicyclo[2.2.2]octan-1-yl)methyl)(5-fluoro-4-(4-isopropoxyphenyl)pyridin-2-yl)carbamate], with 81 nM; and `COCc1ccc(-c2cccc(N(CC34CCC(c5nc(C(C)C)no5)(CC3)CC4)C(=O)C34CC(F)(C3)C4)c2)cn1` [Example 391, 3-fluoro-N-((4-(3-isopropyl-1,2,4-oxadiazol-5-yl)bicyclo[2.2.2]octan-1-yl)methyl)-N-(3-(6-(methoxymethyl)pyridin-3-yl)phenyl)bicyclo[1.1.1]pentane-1-carboxamide], with 147 nM.

`CCOc1ncc(-c2cccc(N(CC34CCC(c5nc(C(C)(C)C)no5)(CC3)CC4)C(=O)C34CC(F)(C3)C4)c2)cn1` [Example 357, N-((4-(3-(tert-butyl)-1,2,4-oxadiazol-5-yl)bicyclo[2.2.2]octan-1-yl)methyl)-N-(3-(2-ethoxypyrimidin-5-yl)phenyl)-3-fluorobicyclo[1.1.1]pentane-1-carboxamide]: a half-maximal response (EC50) required 83 nM.
